Data: PubChem BioAssay AID2060902 (Molecular Pharmacology Branch, DTP, NCI, 2025)

System: 485368-065-R3-J5-PDC spheroids with HUVEC/MSC, viability
Assay: Anticancer human tumor 485368-065-R3-J5-PDC patient-derived pancreatic carcinoma cell line growth inhibition [RAS]
Settings: for IC50: curve of first compound; for viability, T/C: stronger effect = lower value
Procedure, shortened: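 Agents were tested in combination matrices in half-log decrements from a top concentration at or near clinical Cmax (10 microM if undetermined). Targets were multi-cell spheroids of tumour lines plus HUVEC and MSC stromal cells.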

[1] = second compound 0.0316 µM, first compound 0.000949 µM
[2] = second compound 0.0316 µM, first compound 0.003 µM
[3] = second compound 0.0316 µM, first compound 0.00949 µM
[4] = second compound 0.0316 µM, first compound 0.03 µM
[5] = second compound 0.0316 µM, first compound 0.0949 µM
[6] = second compound 0.0316 µM, first compound 0.3 µM
[7] = second compound 0.1 µM, first compound 0.000949 µM
[8] = second compound 0.1 µM, first compound 0.003 µM
[9] = second compound 0.1 µM, first compound 0.00949 µM
[10] = second compound 0.1 µM, first compound 0.03 µM
[11] = second compound 0.1 µM, first compound 0.0949 µM
[12] = second compound 0.1 µM, first compound 0.3 µM
[13] = second compound 0.316 µM, first compound 0.000949 µM
[14] = second compound 0.316 µM, first compound 0.003 µM
[15] = second compound 0.316 µM, first compound 0.00949 µM
[16] = second compound 0.316 µM, first compound 0.03 µM
[17] = second compound 0.316 µM, first compound 0.0949 µM
[18] = second compound 0.316 µM, first compound 0.3 µM
[19] = second compound 1 µM, first compound 0.000949 µM
[20] = second compound 1 µM, first compound 0.003 µM
[21] = second compound 1 µM, first compound 0.00949 µM
[22] = second compound 1 µM, first compound 0.03 µM
[23] = second compound 1 µM, first compound 0.0949 µM
[24] = second compound 1 µM, first compound 0.3 µM
[25] = second compound 3.16 µM, first compound 0.000949 µM
[26] = second compound 3.16 µM, first compound 0.003 µM
[27] = second compound 3.16 µM, first compound 0.00949 µM
[28] = second compound 3.16 µM, first compound 0.03 µM
[29] = second compound 3.16 µM, first compound 0.0949 µM
[30] = second compound 3.16 µM, first compound 0.3 µM
[31] = second compound 10 µM, first compound 0.000949 µM
[32] = second compound 10 µM, first compound 0.003 µM
[33] = second compound 10 µM, first compound 0.00949 µM
[34] = second compound 10 µM, first compound 0.03 µM
[35] = second compound 10 µM, first compound 0.0949 µM
[36] = second compound 10 µM, first compound 0.3 µM
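Further: spheroids exposed to agents for seven days before readout.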

SMILES: CC1(C)CCC(Nc2ncc(C(F)(F)F)c(-c3c[nH]c4c(P(C)(C)=O)c(C#N)ccc34)n2)CN1 (centres undefined) + C#Cc1c(F)ccc2cc(O)cc(-c3ncc4c(N5CC6CCC(C5)N6)nc(OCC56CCCN5CC(F)C6)nc4c3F)c12
- IC50 (second compound 0.0316 µM): 3.18 nM
- IC50 (second compound 0.1 µM): 3.83 nM
- IC50 (second compound 0.316 µM): 4.39 nM
- IC50 (second compound 1 µM): 4.77 nM
- IC50 (second compound 3.16 µM): 4.85 nM
- IC50 (second compound 10 µM): < 0.949 nM
- viability, T/C [1]: 89.8%
- viability, T/C [2]: 51.1%
- viability, T/C [3]: 33.6%
- viability, T/C [4]: 31%
- viability, T/C [5]: 27.3%
- viability, T/C [6]: 30.2%
- viability, T/C [7]: 92.7%
- viability, T/C [8]: 53.2%
- viability, T/C [9]: 38.5%
- viability, T/C [10]: 29.4%
- viability, T/C [11]: 27.7%
- viability, T/C [12]: 33.6%
- viability, T/C [13]: 91.5%
- viability, T/C [14]: 56.4%
- viability, T/C [15]: 36.4%
- viability, T/C [16]: 33.6%
- viability, T/C [17]: 30.1%
- viability, T/C [18]: 28.8%
- viability, T/C [19]: 85.2%
- viability, T/C [20]: 55.8%
- viability, T/C [21]: 40.7%
- viability, T/C [22]: 36%
- viability, T/C [23]: 30.8%
- viability, T/C [24]: 31.1%
- viability, T/C [25]: 72.3%
- viability, T/C [26]: 56.3%
- viability, T/C [27]: 41.2%
- viability, T/C [28]: 36.5%
- viability, T/C [29]: 36.9%
- viability, T/C [30]: 35.6%
- viability, T/C [31]: 41.6%
- viability, T/C [32]: 38.1%
- viability, T/C [33]: 31.4%
- viability, T/C [34]: 35.4%
- viability, T/C [35]: 30.4%
- viability, T/C [36]: 27.8%

SMILES: CCc1c2c(nc3ccc(O)cc13)-c1cc3c(c(=O)n1C2)COC(=O)[C@]3(O)CC + C#Cc1c(F)ccc2cc(O)cc(-c3ncc4c(N5CC6CCC(C5)N6)nc(OCC56CCCN5CC(F)C6)nc4c3F)c12
- IC50 (second compound 0.0316 µM): 2.01 nM
- IC50 (second compound 0.1 µM): 2.04 nM
- IC50 (second compound 0.316 µM): 2.04 nM
- IC50 (second compound 1 µM): 2.19 nM
- IC50 (second compound 3.16 µM): 1.66 nM
- IC50 (second compound 10 µM): < 0.949 nM
- viability, T/C [1]: 79.6%
- viability, T/C [2]: 34%
- viability, T/C [3]: 14.3%
- viability, T/C [4]: 7.01%
- viability, T/C [5]: 5.19%
- viability, T/C [6]: 2.88%
- viability, T/C [7]: 82.5%
- viability, T/C [8]: 33.7%
- viability, T/C [9]: 12.5%
- viability, T/C [10]: 7.37%
- viability, T/C [11]: 4.36%
- viability, T/C [12]: 3.26%
- viability, T/C [13]: 82.5%
- viability, T/C [14]: 33.4%
- viability, T/C [15]: 13.3%
- viability, T/C [16]: 5.82%
- viability, T/C [17]: 5.07%
- viability, T/C [18]: 3.14%
- viability, T/C [19]: 91.2%
- viability, T/C [20]: 33.6%
- viability, T/C [21]: 14.8%
- viability, T/C [22]: 6.95%
- viability, T/C [23]: 4.29%
- viability, T/C [24]: 3.15%
- viability, T/C [25]: 71.5%
- viability, T/C [26]: 26.7%
- viability, T/C [27]: 12.9%
- viability, T/C [28]: 7.69%
- viability, T/C [29]: 4.04%
- viability, T/C [30]: 2.84%
- viability, T/C [31]: 28.2%
- viability, T/C [32]: 19.4%
- viability, T/C [33]: 11.2%
- viability, T/C [34]: 5.94%
- viability, T/C [35]: 3.93%
- viability, T/C [36]: 3.41%
